Experimental data published in patent US20250177408A1, “INHIBITOR OF INTERACTION BETWEEN YAP/TAZ AND TEAD, PREPARATION THEREOF, PHARMACEUTICAL COMPOSITION THEREOF AND USE THEREOF” (ETERN BIOPHARMA (SHANGHAI) CO., LTD., priority 2022, published 2025).
pIC50: −log10 of the molar value. Structures can show the parent of a compound that is named as a salt. Where two headings read alike, the source gives them in different places.

Assays:
MSTO-211H cells = experiment: Cell proliferation inhibition experiment (CellTiter-Glo); format: cell-based; details: 96 hours, read-out: Inhibitory activity of each compound on the proliferation of MSTO-211H cells (grades of IC50 values)
In short: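 MSTO-211H cells (1500/well, RPMI1640 + 10% FBS) were plated overnight at 37° C, 5% CO2, then exposed in duplicate to 9 three-fold compound dilutions (DMSO ≤0.5% final) for 96 hours. Viability was read as CellTiter-Glo luminescence after 10 min at room temperature. IC50 was derived from inhibition of the CTG signal.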

[1] = target: YAP-TEAD protein interaction (His-TEAD1 (209-426) protein, Bio-YAP peptide (60-100)) (Homo sapiens, UniProt P28347); experiment: YAP-TEAD protein interaction HTRF experiment; format: binding; details: His-TEAD1 (209-426) 10 nM, Bio-YAP peptide 50 nM, read-out: Activity of each compound in blocking YAP-TEAD protein interaction (grades of IC50 values)
In short: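 His-TEAD1 (209-426) at 10 nM final was preincubated 20 min at RT with compounds (10-point 3-fold dilutions, duplicates, 1% DMSO), then Bio-YAP peptide, 10 min. Anti-His-Eu cryptate/streptavidin-XL665 added for 1 h at RT; HTRF read at ex 320 nm, Em665/Em620 ratio ×10000, IC50 from % inhibition.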

Sequence of YAP-TEAD protein interaction (His-TEAD1 (209-426) protein, Bio-YAP peptide (60-100)) (P28347 209-426): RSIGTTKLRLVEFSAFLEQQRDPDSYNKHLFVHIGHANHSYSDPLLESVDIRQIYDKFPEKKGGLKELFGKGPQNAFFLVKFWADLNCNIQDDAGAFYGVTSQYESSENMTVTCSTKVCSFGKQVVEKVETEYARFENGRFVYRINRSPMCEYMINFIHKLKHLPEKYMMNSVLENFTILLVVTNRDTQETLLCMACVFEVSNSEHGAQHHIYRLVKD

SMILES	pIC50 (MSTO-211H cells; Homo sapiens)	pIC50 [1]	pIC50 (MSTO-211H cells)
CNC[C@@]1(c2ccccc2)Cc2c(cc(F)c(Cl)c2-c2c(C(N)=O)cn3cc(C)nc3c2F)O1 (atropisomer, axis not shown) [Compound I-16, (S)-7-((S)-5-Chloro-6-fluoro-2-((methylamino)methyl)-2-phenyl-2,3-dihydrobenzofuran-4-yl)-8-fluoro-2-methylimidazo[1,2-a]pyridine-6-carboxamide]	> 6.70	> 7.30	–
NC(=O)c1cc2c(c(F)c1-c1c(Cl)c(F)cc3c1C[C@](c1ccccc1)([C@@H]1CCCN1)O3)Oc1nnccc1O2 [Compound 71, (S)-8-((S)-5-Chloro-6-fluoro-2-phenyl-2-((S)-pyrrolidin-2-yl)-2,3-dihydrobenzofuran-4-yl)-9-fluorobenzo[5,6][1,4]dioxo[2,3-c]pyridazine-7-carboxamide]	–	> 7.30	6.30 to 6.70
CO[C@H]1C[C@H](CNC[C@@]2(c3ccccc3)Cc3c(cc(F)c(Cl)c3-c3c(C(N)=O)cc4c(c3F)OCc3nn(C)cc3-4)O2)C1 (atropisomer, axis not shown) [Compound 84, (S)-7-((S)-5-Chloro-6-fluoro-2-(((((1r,3S)-3-methoxycyclobutyl)methyl)amino)methyl)-2-phenyl-2,3-dihydrobenzofuran-4-yl)-6-fluoro-2-methyl-2,4-dihydrochromeno[3,4-c]pyrazole-8-carboxamide formate]	6.30 to 6.70	> 7.30	–
CNC(=O)c1cc2c(c(F)c1-c1c(Cl)c(F)cc3c1C[C@](c1ccccc1)([C@@H]1CCCN1)O3)Oc1c(cnn(C3CC(F)(F)C3)c1=O)O2 (atropisomer, axis not shown) [Compound 148, (S)-8-((S)-5-Chloro-6-fluoro-2-phenyl-2-((S)-pyrrolidin-2-yl)-2,3-dihydrobenzofuran-4-yl)-2-(3,3-difluorocyclobutyl)-9-fluoro-N-methyl-1-oxo-1,2-dihydrobenzo [5,6][1,4]dioxo [2,3-d]pyridazine-7-carboxamide]	> 6.70	> 7.30	–
CNC[C@@]1(c2ccccc2)Cc2c(cc(F)c(Cl)c2-c2c(C(N)=O)cc3c(c2F)OCCN3)O1 (atropisomer, axis not shown) [Compound I-17, (S)-7-((S)-5-Chloro-6-fluoro-2-((methylamino)methyl)-2-phenyl-2,3-dihydrobenzofuran-4-yl)-8-fluoro-3,4-dihydro-2H-benzo[b][1,4]oxazine-6-carboxamide]	> 6.70	> 7.30	–
[2H]C1([2H])CC[C@]([2H])([C@@]2(c3ccccc3)Cc3c(cc(F)c(Cl)c3-c3c(C(=O)NC)cc4c(c3F)Oc3c(cnn(C5CC(F)(F)C5)c3=O)O4)O2)N1 (atropisomer, axis not shown) [Compound 158, (S)-8-((S)-5-Chloro-6-fluoro-2-phenyl-2-((S)-pyrrolidin-2-yl-2,5,5-d3)-2,3-dihydrobenzofuran-4-yl)-2-(3,3-difluorocyclobutyl)-9-fluoro-N-methyl-1-oxo-1,2-dihydrobenzo[5,6][1,4]dioxo [2,3-d]pyridazine-7-carboxamide]	> 6.70	> 7.30	–
CNC(=O)c1cc2c(c(F)c1-c1c(Cl)c(F)cc3c1C[C@](c1ccccc1)([C@@H]1CCCN1)O3)Oc1c(cnn(CCOC)c1=O)O2 (atropisomer, axis not shown) [Compound 150, (S)-8-((S)-5-Chloro-6-fluoro-2-phenyl-2-((S)-pyrrolidin-2-yl)-2,3-dihydrobenzofuran-4-yl)-9-fluoro-2-(2-methoxyethyl)-N-methyl-1-oxo-1,2-dihydrobenzo [5,6][1,4]dioxo [2,3-d]pyridazine-7-carboxamide]	> 6.70	> 7.30	–
NC(=O)c1cc2c(c(F)c1-c1c(Cl)c(F)cc3c1C[C@](c1ccccc1)([C@@H]1CCCN1)O3)Oc1ncc(CO)nc1O2 (atropisomer, axis not shown) [Compound 102, (S)-8-((S)-5-Chloro-6-fluoro-2-phenyl-2-((S)-pyrrolidin-2-yl)-2,3-dihydrobenzofuran-4-yl)-9-fluoro-3-(hydroxymethyl)benzo[5,6] [1,4]dioxo [2,3-b]pyrazine-7-carboxamide]	> 6.70	> 7.30	–
